Reference: patent US5855916A, “Highly soluble multicomponent inclusion complexes containing a base type drug, an acid and a cyclodextrin” (priority 1993, dated 1999)
Values after ≈ are worked out from the molar mass of the structure shown. Read-outs that look alike come from different tables or passages of the source. Values belong to the compound of their own block, whether it stands above or below them.

How the values were obtained:
[1] = for Solubility ratio to FB: FB: drug alone; for Solubility ratio to FB: FB/AT: drug with tartaric acid; for Solubility ratio to FB: FB/AT/βCD / Water solubility, drug concentration F: FB/AT/βCD: drug/tartaric acid/β-CD multicomponent complex; for Water solubility, drug concentration F: FB/βCD: drug/β-cyclodextrin complex; for Water solubility, drug concentration F: FB/DIMEB: drug/DIMEB complex; for Water solubility, drug concentration F: FB/HPβ-CD: drug/HPβ-CD complex; for Water solubility, drug concentration F: FB/RAMEB: drug/RAMEB complex; for Water solubility, drug concentration F: FB/α-CD: drug/α-CD complex; for Water solubility, drug concentration F: FB/γ-CD: drug/γ-CD complex
physchem = conditions: water
[2] = simultaneous administration of citric acid; Tokumura et al.; cited from earlier work
[3] = acidic conditions; Kikuchi et al.; cited from earlier work
[4] = 1 mmol terfenadine, 15 ml water, 6 mmol acetic or 4 mmol formic acid
[5] = Effect of some acids on the β-CD solubility; assay type: physicochemical
Description: In a test tube 1000 mg of β-CD in 5 ml of a solution having different concentrations of an acid selected from tartaric, citric, lactic acid, were let to equilibrate for two days at 28*/-2° C. under stirring. The solution was filtered and β-CD concentration was determined by HPLC.

[6] = Table 1, drug tartrate in β-CD solution, room temperature
[7] = drug concentration F: FB, Table 1, basic-type drug alone, room temperature
[8] = drug concentration F: FB, Table 3, basic-type drug alone
[9] = drug concentration F: FB/AT, Table 1, drug with tartaric acid, room temperature

Solubility ratio to FB: FB ([1]; Table 1): 1 x
Solubility ratio to FB: FT/βCD ([1]; Table 1, drug tartrate in β-CD solution): 1975 x
Water solubility, drug concentration F: FT/βCD [1, 6]: 7900 µg/mL
Solubility ratio to FB: FB/AT ([1]; Table 1): 817.5 x
Solubility ratio to FB: FB/AT/βCD ([1]; Table 1): 22500 x
Water solubility, drug concentration F: FB/AT/βCD ([1]; Table 1, room temperature): 90000 µg/mL
Solubility ratio to FB: FB/βCD ([1]; Table 1, drug/β-CD complex): 16 x
Water solubility, drug concentration F: FB/βCD ([1]; Table 1, room temperature): 65 µg/mL
Solubility ratio to FB: FB/DIMEB ([1]; Table 3): 303 x
Solubility ratio to FB: FB/HPβ-CD ([1]; Table 3): 86 x
Solubility ratio to FB: FB/RAMEB ([1]; Table 3): 275 x
Solubility ratio to FB: FB/α-CD ([1]; Table 3): 6 x
Solubility ratio to FB: FB/γ-CD ([1]; Table 3): 6.6 x
Water solubility, drug concentration F: FB/DIMEB ([1]; Table 3): 1245 µg/mL
Water solubility, drug concentration F: FB/HPβ-CD ([1]; Table 3): 353 µg/mL
Water solubility, drug concentration F: FB/RAMEB ([1]; Table 3): 1100 µg/mL
Water solubility, drug concentration F: FB/α-CD ([1]; Table 3): 24 µg/mL
Water solubility, drug concentration F: FB/γ-CD ([1]; Table 3): 27 µg/mL
solubility (physchem; [7]): 4 µg/mL (≈ 8.72 µM)
solubility (physchem; [8]): 4 µg/mL (≈ 8.72 µM)
solubility (physchem; [9]): 3270 µg/mL (≈ 7130 µM)
SMILES: COc1ccc(CCN2CCC(Nc3nc4ccccc4n3Cc3ccc(F)cc3)CC2)cc1 [Astemizole]

SMILES: C(=C\c1ccccc1)/CN1CCN(C(c2ccccc2)c2ccccc2)CC1 [Cinnarizine]
Difference in bioavailability between cinnarizine + citric acid and its β-cyclodextrin complex + citric acid [2]: no significant difference

Solubility ratio to FB: FB ([1]; Table 2): 1 x
Solubility ratio to FB: FC/βCD ([1]; Table 2, drug citrate in β-CD solution): 500 x
Water solubility, drug concentration F: FC/βCD ([1]; Table 2, drug citrate in β-CD solution, room temperature): 20000 µg/mL
Solubility ratio to FB: FB/AC ([1]; Table 2, drug with citric acid): 155 x
Solubility ratio to FB: FB/AC/βCD ([1]; Table 2, drug/citric acid/β-CD multicomponent complex): 1925 x
Water solubility, drug concentration F: FB/AC/βCD ([1]; Table 2, drug/citric acid/β-CD multicomponent complex, room temperature): 77000 µg/mL
Solubility ratio to FB: FB/CD ([1]; Table 2, drug/β-CD complex): 7 x
Water solubility, drug concentration F: FB/CD ([1]; Table 2, drug/β-CD complex, room temperature): 280 µg/mL
solubility (physchem; drug concentration F: FB, Table 2, basic-type drug alone, room temperature): 40 µg/mL (≈ 98.5 µM)
solubility (physchem; drug concentration F: FB/AC, Table 2, drug with citric acid, room temperature): 6200 µg/mL (≈ 15300 µM)
SMILES: CCN(CC)CCOc1ccc(C(=C(Cl)c2ccccc2)c2ccccc2)cc1 [Clomifene]

SMILES: O=c1[nH]c2ccccc2n1CCCN1CCC(n2c(=O)[nH]c3cc(Cl)ccc32)CC1 [Domperidone]
Solubility ratio to FB: FB ([1]; Table 1): 1 x
Solubility ratio to FB: FB/AT ([1]; Table 1): 2000 x
Solubility ratio to FB: FB/AT/βCD ([1]; Table 1): 5000 x
Water solubility, drug concentration F: FB/AT/βCD ([1]; Table 1, room temperature): 25000 µg/mL
Solubility ratio to FB: FB/βCD ([1]; Table 1, drug/β-CD complex): 4.4 x
Water solubility, drug concentration F: FB/βCD ([1]; Table 1, room temperature): 22 µg/mL
Solubility ratio to FB: FB/AT/DIMEB ([1]; Table 3): 600 x
Solubility ratio to FB: FB/AT/HPβ-CD ([1]; Table 3): 10000 x
Solubility ratio to FB: FB/AT/RAMEB ([1]; Table 3): 6000 x
Solubility ratio to FB: FB/AT/α-CD ([1]; Table 3): 5000 x
Solubility ratio to FB: FB/AT/γ-CD ([1]; Table 3): 6000 x
Solubility ratio to FB: FB/DIMEB ([1]; Table 3): 112 x
Solubility ratio to FB: FB/HPβ-CD ([1]; Table 3): 32 x
Solubility ratio to FB: FB/RAMEB ([1]; Table 3): 56 x
Solubility ratio to FB: FB/α-CD ([1]; Table 3): 6.6 x
Solubility ratio to FB: FB/γ-CD ([1]; Table 3): 8 x
Water solubility, drug concentration F: FB/DIMEB ([1]; Table 3): 560 µg/mL
Water solubility, drug concentration F: FB/HPβ-CD ([1]; Table 3): 160 µg/mL
Water solubility, drug concentration F: FB/RAMEB ([1]; Table 3): 280 µg/mL
Water solubility, drug concentration F: FB/AT/DIMEB ([1]; Table 3, drug/tartaric acid/DIMEB multicomponent complex): 30000 µg/mL
Water solubility, drug concentration F: FB/AT/HPβ-CD ([1]; Table 3, drug/tartaric acid/HPβ-CD multicomponent complex): 50000 µg/mL
Water solubility, drug concentration F: FB/AT/RAMEB ([1]; Table 3, drug/tartaric acid/RAMEB multicomponent complex): 30000 µg/mL
Water solubility, drug concentration F: FB/AT/α-CD ([1]; Table 3, drug/tartaric acid/α-CD multicomponent complex): 25000 µg/mL
Water solubility, drug concentration F: FB/AT/γ-CD ([1]; Table 3, drug/tartaric acid/γ-CD multicomponent complex): 30000 µg/mL
Water solubility, drug concentration F: FB/α-CD ([1]; Table 3): 33 µg/mL
Water solubility, drug concentration F: FB/γ-CD ([1]; Table 3): 40 µg/mL
solubility (physchem; [7]): 5 µg/mL (≈ 11.7 µM)
solubility (physchem; [8]): 5 µg/mL (≈ 11.7 µM)
solubility (physchem; [9]): 10000 µg/mL (≈ 23500 µM)

SMILES: CCCCCCNC(=O)n1cc(F)c(=O)[nH]c1=O [HCFU, 1-hexylcarbamoyl-5-fluorouracil]
Chemical stability [3]: chemically stable under acidic conditions

Water solubility, drug concentration F: FT/βCD [1, 6]: 21000 µg/mL
Water solubility, drug concentration F: FB/AT/βCD ([1]; Table 1, room temperature): 110000 µg/mL
Water solubility, drug concentration F: FB/βCD ([1]; Table 1, room temperature): 1240 µg/mL
solubility (physchem; [7]): 50 µg/mL (≈ 94.1 µM)
solubility (physchem; [9]): 21000 µg/mL (≈ 39500 µM)
SMILES: CC(=O)N1CCN(c2ccc(OCC3COC(Cn4ccnc4)(c4ccc(Cl)cc4Cl)O3)cc2)CC1 (stereo not drawn) [Ketoconazole]

Dissolution attempt with acid without cyclodextrin [4]: not successful
SMILES: CC(C)(C)c1ccc(C(O)CCCN2CCC(C(O)(c3ccccc3)c3ccccc3)CC2)cc1 (stereo not drawn) [Terfenadine]

β-CD concentration ([5]; citric acid 0 mg/ml, 2880 min): 18.3 mg/mL
β-CD concentration ([5]; citric acid 9.6 mg/ml, 2880 min): 34.1 mg/mL
β-CD concentration ([5]; citric acid 19.2 mg/ml, 2880 min): 47.9 mg/mL
β-CD concentration ([5]; citric acid 48.0 mg/ml): 86.1 mg/mL
β-CD concentration ([5]; citric acid 96.0 mg/ml, 2880 min): 140.1 mg/mL
β-CD concentration ([5]; citric acid 144.0 mg/ml, 2880 min): 195.7 mg/mL
Effect of tartaric and citric acid on water solubility of β-CD ([5]; depending on acid concentration): remarkably enhance the water solubility
β-CD concentration ([5]; lactic acid 0 mg/ml, 2880 min): 18.3 mg/mL
β-CD concentration ([5]; lactic acid 9.0 mg/ml, 2880 min): 18.8 mg/mL
β-CD concentration ([5]; lactic acid 22.5 mg/ml, 2880 min): 24.2 mg/mL
β-CD concentration ([5]; lactic acid 67.5 mg/ml, 2880 min): 35.8 mg/mL
Effect of lactic acid on water solubility of β-CD ([5]; lactic acid, compared with tartaric and citric acid): lower effect
Increase of the β-CD solubility in the binary system acid-β-CD ([5]; tartaric 11 and citric 17 mg/ml respectively): about 2 times
β-CD concentration ([5]; tartaric acid 0 mg/ml, 2880 min): 18.3 mg/mL
β-CD concentration ([5]; tartaric acid 15.0 mg/ml, 2880 min): 31.4 mg/mL
β-CD concentration ([5]; tartaric acid 112.5 mg/ml, 2880 min): 83.7 mg/mL
SMILES: OC[C@H]1O[C@@H]2O[C@H]3[C@H](O)[C@@H](O)[C@@H](O[C@H]4[C@H](O)[C@@H](O)[C@@H](O[C@H]5[C@H](O)[C@@H](O)[C@@H](O[C@H]6[C@H](O)[C@@H](O)[C@@H](O[C@H]7[C@H](O)[C@@H](O)[C@@H](O[C@H]8[C@H](O)[C@@H](O)[C@@H](O[C@H]1[C@H](O)[C@H]2O)O[C@@H]8CO)O[C@@H]7CO)O[C@@H]6CO)O[C@@H]5CO)O[C@@H]4CO)O[C@@H]3CO [β-CD]
